Patent US20230136600A1, “Method and device for screening antigen epitope polypeptide” (priority 2020, published 2023)

Test system: Balb/c mice
Experiment: Polypeptide chip-based vaccine immunogenicity scoring system
Format: in vivo
Design: key to A2: whether the 95 percentile of the last sampling is increased compared with the end point: Y = rise; N = no rise
Details: for A: 95 percentile grouping number score / B: Mouse performance score: total score = 5; for C1: #A timing-sequence response peptide fragment set / C2: #B vaccine specificity peptide fragment set / C3: Intersection of A and B / C4: Percentage of the intersection in set B / C: Timing-sequence response and specificity score: value of the whole mix
Description: Data distribution and characteristics thereof are analyzed based on a) and b), a polypeptide chip-based vaccine immunogenicity scoring system (referring to Table 7) is designed.
10 combinations are evaluated by the polypeptide chip-based vaccine immunogenicity scoring system. An evaluation method is consistent with that in Embodiment II. Evaluation results are show in the table below.
This embodiment is consistent with Embodiment II. Each combination is evaluated by the polypeptide chip-based vaccine immunogenicity scoring system. Evaluation results are show in the table below.

[1] = Embodiment III, polypeptide-KLH
[2] = Embodiment III, polypeptide-KLH, Mix1-10
[3] = Embodiment III, polypeptide-KLH, A*3 + B*2 + C*1
[4] = adjuvant AddaVax, 7 peptides co-immunized in mice
[5] = adjuvant Adju-Phos, 7 peptides co-immunized in mice
[6] = adjuvant Alhydrogel, 7 peptides co-immunized in mice
[7] = adjuvant Imjet Alumn, 7 peptides co-immunized in mice
[8] = adjuvant MA103A, 7 peptides co-immunized in mice
[9] = adjuvant MA103B, 7 peptides co-immunized in mice

NSVAYSNNS (SARS-CoV-2) [SEQ ID NO:9]
B1: D 0-D 14 95 percentile rise in the number of mice [1]: 3 | B2: D 0-D 21 95 percentile rise in the number of mice [1]: 3 | B3: D 14-D 21 95 percentile rise in the number of mice [1]: 1 | B4: D 21-D 28 95 percentile rise in the number of mice [1]: 1 | A1: difference between a highest median and a D 0 median (95 percentile) [2]: 0.07 | A2: whether the 95 percentile of the last sampling is increased compared with the end point [2]: N | Total single peptide [3]: 10.3 | A: 95 percentile grouping number score [1]: 2 | B: Mouse performance score [1]: 1.9 | C1: #A timing-sequence response peptide fragment set [1]: 145 | C2: #B vaccine specificity peptide fragment set [1]: 529 | C3: Intersection of A and B [1]: 1 | C4: Percentage of the intersection in set B [1]: 0.189 | C: Timing-sequence response and specificity score [1]: 0.5

DSFKEELDKY (SARS-CoV-2) [SEQ ID NO:33]
B1: D 0-D 14 95 percentile rise in the number of mice [1]: 3 | B2: D 0-D 21 95 percentile rise in the number of mice [1]: 3 | B3: D 14-D 21 95 percentile rise in the number of mice [1]: 1 | B4: D 21-D 28 95 percentile rise in the number of mice [1]: 1 | A1: difference between a highest median and a D 0 median (95 percentile) [2]: 0.13 | A2: whether the 95 percentile of the last sampling is increased compared with the end point [2]: N | Total single peptide [3]: 18.3 | A: 95 percentile grouping number score [1]: 4.5 | B: Mouse performance score [1]: 1.9 | C1: #A timing-sequence response peptide fragment set [1]: 288 | C2: #B vaccine specificity peptide fragment set [1]: 268 | C3: Intersection of A and B [1]: 4 | C4: Percentage of the intersection in set B [1]: 1.493 | C: Timing-sequence response and specificity score [1]: 1

MADSNGTIT (SARS-CoV-2) [SEQ ID NO:16]
A2: whether the 95 percentile of the last sampling is increased compared with the end point (Embodiment II, Combination 2): Y | B1: D 0-D 14 95 percentile rise in the number of mice (Embodiment II, Combination 2): 5 | B2: D 0-D 21 95 percentile rise in the number of mice (Embodiment II, Combination 2): 1 | B3: D 14-D 21 95 percentile rise in the number of mice (Embodiment II, Combination 2): 0 | B4: D 21-D 28 95 percentile rise in the number of mice (Embodiment II, Combination 2): 2 | Total single peptide (Embodiment II, Combination 2, A*3 + B*2 + C*1): 19.9 | A: 95 percentile grouping number score (Embodiment II, Combination 2): 5 | B: Mouse performance score (Embodiment II, Combination 2): 2.2 | A1: difference between a highest median and a D 0 median (95 percentile) (Embodiment II, mice immunized with Combination 2): 0.2 | B1: D 0-D 14 95 percentile rise in the number of mice [1]: 3 | B2: D 0-D 21 95 percentile rise in the number of mice [1]: 3 | B3: D 14-D 21 95 percentile rise in the number of mice [1]: 1 | B4: D 21-D 28 95 percentile rise in the number of mice [1]: 2 | A1: difference between a highest median and a D 0 median (95 percentile) [2]: 0.08 | A2: whether the 95 percentile of the last sampling is increased compared with the end point [2]: Y | Total single peptide [3]: 15.2 | A: 95 percentile grouping number score [1]: 3.5 | B: Mouse performance score [1]: 2.1 | C1: #A timing-sequence response peptide fragment set [1]: 511 | C2: #B vaccine specificity peptide fragment set [1]: 364 | C3: Intersection of A and B [1]: 1 | C4: Percentage of the intersection in set B [1]: 0.275 | C: Timing-sequence response and specificity score [1]: 0.5

LQDLKWARFPKS [SEQ ID NO:29]
B1: D 0-D 14 95 percentile rise in the number of mice [1]: 3 | B2: D 0-D 21 95 percentile rise in the number of mice [1]: 3 | B3: D 14-D 21 95 percentile rise in the number of mice [1]: 2 | B4: D 21-D 28 95 percentile rise in the number of mice [1]: 0 | A1: difference between a highest median and a D 0 median (95 percentile) [2]: 0.10 | A2: whether the 95 percentile of the last sampling is increased compared with the end point [2]: N | Total single peptide [3]: 16.3 | A: 95 percentile grouping number score [1]: 4 | B: Mouse performance score [1]: 1.9 | C1: #A timing-sequence response peptide fragment set [1]: 257 | C2: #B vaccine specificity peptide fragment set [1]: 682 | C3: Intersection of A and B [1]: 3 | C4: Percentage of the intersection in set B [1]: 0.440 | C: Timing-sequence response and specificity score [1]: 0.5 | 1) 95 percentile grouping number A [4]: 4 | 1) 95 percentile grouping number A1 [4]: 0.055 | 2) Mouse performance B [4]: 3.5 | 2) Mouse performance B1 [4]: 3 | 2) Mouse performance B2 [4]: 5 | 2) Mouse performance B3 [4]: 4 | 3) Timing-sequence response and specificity C [4]: 0 | 3) Timing-sequence response and specificity C1 [4]: 237 | 3) Timing-sequence response and specificity C2 [4]: 1244 | 3) Timing-sequence response and specificity C3 [4]: 0 | 3) Timing-sequence response and specificity C4 [4]: 0.000 | Total single peptide [4]: 19 | 1) 95 percentile grouping number A [5]: 3.5 | 1) 95 percentile grouping number A1 [5]: 0.055 | 2) Mouse performance B [5]: 1.9 | 2) Mouse performance B1 [5]: 3 | 2) Mouse performance B2 [5]: 3 | 2) Mouse performance B3 [5]: 1 | 3) Timing-sequence response and specificity C [5]: 0 | 3) Timing-sequence response and specificity C1 [5]: 203 | 3) Timing-sequence response and specificity C2 [5]: 1244 | 3) Timing-sequence response and specificity C3 [5]: 0 | 3) Timing-sequence response and specificity C4 [5]: 0.000 | Total single peptide [5]: 14.3 | 1) 95 percentile grouping number A [6]: 3 | 1) 95 percentile grouping number A1 [6]: 0.04 | 2) Mouse performance B [6]: 1.9 | 2) Mouse performance B1 [6]: 5 | 2) Mouse performance B2 [6]: 2 | 2) Mouse performance B3 [6]: 0 | 3) Timing-sequence response and specificity C [6]: 1 | 3) Timing-sequence response and specificity C1 [6]: 123 | 3) Timing-sequence response and specificity C2 [6]: 1244 | 3) Timing-sequence response and specificity C3 [6]: 2 | 3) Timing-sequence response and specificity C4 [6]: 0.161 | Total single peptide [6]: 13.3 | 1) 95 percentile grouping number A [7]: 5 | 1) 95 percentile grouping number A1 [7]: 0.08 | 2) Mouse performance B [7]: 2.5 | 2) Mouse performance B1 [7]: 5 | 2) Mouse performance B2 [7]: 3 | 2) Mouse performance B3 [7]: 1 | 3) Timing-sequence response and specificity C [7]: 1 | 3) Timing-sequence response and specificity C1 [7]: 100 | 3) Timing-sequence response and specificity C2 [7]: 1244 | 3) Timing-sequence response and specificity C3 [7]: 3 | 3) Timing-sequence response and specificity C4 [7]: 0.241 | Total single peptide [7]: 20.5 | 1) 95 percentile grouping number A [8]: 5 | 1) 95 percentile grouping number A1 [8]: 0.08 | 2) Mouse performance B [8]: 2.9 | 2) Mouse performance B1 [8]: 5 | 2) Mouse performance B2 [8]: 5 | 2) Mouse performance B3 [8]: 1 | 3) Timing-sequence response and specificity C [8]: 1 | 3) Timing-sequence response and specificity C1 [8]: 260 | 3) Timing-sequence response and specificity C2 [8]: 1244 | 3) Timing-sequence response and specificity C3 [8]: 3 | 3) Timing-sequence response and specificity C4 [8]: 0.241 | Total single peptide [8]: 21.3 | 1) 95 percentile grouping number A [9]: 4.5 | 1) 95 percentile grouping number A1 [9]: 0.065 | 2) Mouse performance B [9]: 3.7 | 2) Mouse performance B1 [9]: 5 | 2) Mouse performance B2 [9]: 5 | 2) Mouse performance B3 [9]: 3 | 3) Timing-sequence response and specificity C [9]: 0 | 3) Timing-sequence response and specificity C1 [9]: 153 | 3) Timing-sequence response and specificity C2 [9]: 1244 | 3) Timing-sequence response and specificity C3 [9]: 0 | 3) Timing-sequence response and specificity C4 [9]: 0.000 | Total single peptide [9]: 20.9

KLDNYYKKDNSY (SARS-CoV-2) [SEQ ID NO:32]
B1: D 0-D 14 95 percentile rise in the number of mice [1]: 3 | B2: D 0-D 21 95 percentile rise in the number of mice [1]: 3 | B3: D 14-D 21 95 percentile rise in the number of mice [1]: 1 | B4: D 21-D 28 95 percentile rise in the number of mice [1]: 2 | A1: difference between a highest median and a D 0 median (95 percentile) [2]: 0.12 | A2: whether the 95 percentile of the last sampling is increased compared with the end point [2]: Y | Total single peptide [3]: 20.2 | A: 95 percentile grouping number score [1]: 5 | B: Mouse performance score [1]: 2.1 | C1: #A timing-sequence response peptide fragment set [1]: 1494 | C2: #B vaccine specificity peptide fragment set [1]: 190 | C3: Intersection of A and B [1]: 2 | C4: Percentage of the intersection in set B [1]: 1.053 | C: Timing-sequence response and specificity score [1]: 1

YTNDKACPL (SARS-CoV-2) [SEQ ID NO:1]
B1: D 0-D 14 95 percentile rise in the number of mice [1]: 2 | B2: D 0-D 21 95 percentile rise in the number of mice [1]: 2 | B3: D 14-D 21 95 percentile rise in the number of mice [1]: 1 | B4: D 21-D 28 95 percentile rise in the number of mice [1]: 1 | A1: difference between a highest median and a D 0 median (95 percentile) [2]: 0.11 | A2: whether the 95 percentile of the last sampling is increased compared with the end point [2]: Y | Total single peptide [3]: 18.3 | A: 95 percentile grouping number score [1]: 5 | B: Mouse performance score [1]: 1.4 | C1: #A timing-sequence response peptide fragment set [1]: 257 | C2: #B vaccine specificity peptide fragment set [1]: 682 | C3: Intersection of A and B [1]: 3 | C4: Percentage of the intersection in set B [1]: 0.440 | C: Timing-sequence response and specificity score [1]: 0.5
